Assay results reported in patent US11053251B2, “GPR35 modulators” (Prometheus Biosciences, Inc., priority 2019, dated 2021).
pEC50: −log10 of the molar value.

Assays:
Human GPR35 [1] = target: Human GPR35 (Homo sapiens, UniProt Q9HC97); experiment: Beta-Arrestin Assay (Tango U2OS cells, LiveBLAzer-FRET B/G); format: cell-based; conditions: Human GPR35 expressing Tango U2OS cells, 5 hours treatment
Summary of the method: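 Tango U2OS cells expressing GPR35 were plated at 10,000 cells/well overnight, then treated with serially diluted compounds for 5 h. Beta-arrestin recruitment was read by LiveBLAzer-FRET B/G after a 2 h substrate incubation, with zaprinast as positive control. EC50 came from a four-parameter dose-response fit.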

Human GPR35 [2] = target: Human GPR35 (Homo sapiens, UniProt Q9HC97, S294R); experiment: Alternative Beta-Arrestin Assay (JumpIn 294R Tango U2OS cells, LiveBLAzer-FRET B/G); format: cell-based; conditions: for pEC50: Human GPR35 expressing JumpIn 294R Tango U2OS cells, 5 hours treatment; for % inhibition at 50 μM: Table 2
Sequence of Human GPR35 (Homo sapiens, UniProt Q9HC97, S294R) (Q9HC97 whole entry S294R): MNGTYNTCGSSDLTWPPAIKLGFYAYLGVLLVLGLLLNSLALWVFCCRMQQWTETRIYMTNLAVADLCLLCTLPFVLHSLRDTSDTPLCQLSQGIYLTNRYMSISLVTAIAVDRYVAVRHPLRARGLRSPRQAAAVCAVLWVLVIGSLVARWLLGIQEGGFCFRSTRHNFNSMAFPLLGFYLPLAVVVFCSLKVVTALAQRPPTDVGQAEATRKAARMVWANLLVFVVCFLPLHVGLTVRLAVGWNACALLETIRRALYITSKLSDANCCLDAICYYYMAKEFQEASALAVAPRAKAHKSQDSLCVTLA
Summary of the method: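 U2OS Tango cells expressing human GPR35 S294R, plated overnight, exposed to serially diluted compounds for 5 hours. β-lactamase reporter read with LiveBLAzer-FRET B/G (CCF4-AM) after 2 h; EC50 from four-parameter fit, zaprinast as positive control.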

Sequence of Human GPR35 (Homo sapiens, UniProt Q9HC97) (Q9HC97 whole entry): as the sequence (Q9HC97 whole entry S294R) above, with R294S counted along it

Row | pEC50 (Human GPR35 [1]) | pEC50 (Human GPR35 [2]) | % inhibition at 50 μM (Human GPR35 [2]) [% inhibition at] | SMILES
1 | ≥ 5.00 | ≥ 5.00 | – | CCOc1cc(-c2ccccc2CC(=O)OC)ccc1-c1nc2[nH]nnc2c(=O)[nH]1 [Compound 118, Methyl 2-(3′-ethoxy-4′-(7-oxo-6,7-dihydro-3H-[1,2,3]triazolo[4,5-d]pyrimidin-5-yl)-[1,1′-biphenyl]-2-yl)acetate]
2 | ≥ 5.00 | ≥ 5.00 | – | CCOc1cc(N2CCCC(C(=O)O)C2)ccc1-c1nc2[nH]nnc2c(=O)[nH]1 (stereo not shown) [Compound 173, 1-(3-ethoxy-4-(7-oxo-6,7-dihydro-3H-[1,2,3]triazolo[4,5-d]pyrimidin-5-yl)phenyl)piperidine-3-carboxylic acid]
3 | ≥ 5.00 | 4.30 to 5.00 | – | CCOc1cc(NC(C)=O)ccc1-c1nc2[nH]nnc2c(=O)[nH]1 [Compound 138, N-(3-ethoxy-4-(7-oxo-6,7-dihydro-3H-[1,2,3]triazolo[4,5-d]pyrimidin-5-yl)phenyl)acetamide]
4 | ≥ 5.00 | ≥ 5.00 | – | CCOc1cc(NCCCC(=O)O)ccc1-c1nc2[nH]nnc2c(=O)[nH]1 [Compound 164, 4-((3-ethoxy-4-(7-oxo-6,7-dihydro-3H-[1,2,3]triazolo[4,5-d]pyrimidin-5-yl)phenyl)amino)butanoic acid]
5 | < 5.00 | – | 35 | CCOc1cc(C(=O)N(C)c2ccccc2)ccc1-c1nc2[nH]nnc2c(=O)[nH]1 [Compound 139, 3-ethoxy-N-methyl-4-(7-oxo-6,7-dihydro-3H-[1,2,3]triazolo[4,5-d]pyrimidin-5-yl)-N-phenylbenzamide]
6 | ≥ 5.00 | ≥ 5.00 | – | O=C(O)c1ccc(-c2nc3[nH]nnc3c(=O)[nH]2)cc1 [Compound 144, 4-(7-oxo-6,7-dihydro-3H-[1,2,3]triazolo[4,5-d]pyrimidin-5-yl)benzoic acid]
7 | ≥ 5.00 | ≥ 5.00 | – | CCOc1cc(-c2ccc(CC(=O)O)cc2)ccc1-c1nc2[nH]nnc2c(=O)[nH]1 [Compound 115, 2-(3′-Ethoxy-4′-(7-oxo-6,7-dihydro-3H-[1,2,3]triazolo[4,5-d]pyrimidin-5-yl)-[1,1′-biphenyl]-4-yl)acetic acid]
8 | ≥ 5.00 | ≥ 5.00 | – | CCOc1cc(-c2cccc(C(=O)O)c2C)ccc1-c1nc2[nH]nnc2c(=O)[nH]1 [Compound 154, 3′-ethoxy-2-methyl-4′-(7-oxo-6,7-dihydro-3H-[1,2,3]triazolo[4,5-d]pyrimidin-5-yl)-[1,1′-biphenyl]-3-carboxylic acid]
9 | ≥ 5.00 | ≥ 5.00 | – | CCOc1cc(N)ccc1-c1nc2[nH]nnc2c(=O)[nH]1 [Compound 137, 5-(4-amino-2-ethoxyphenyl)-3,6-dihydro-7H-[1,2,3]triazolo[4,5-d]pyrimidin-7-one]

Second part, the compound before the results:

Row | SMILES | pEC50 (Human GPR35 [1]) | pEC50 (Human GPR35 [2]) | % inhibition at 50 μM (Human GPR35 [2]) [% inhibition at]
10 | CCOc1cc(N2CCC[C@H]2C(=O)O)ccc1-c1nc2[nH]nnc2c(=O)[nH]1 [Compound 162, (3-ethoxy-4-(7-oxo-6,7-dihydro-3H-[1,2,3]triazolo[4,5-d]pyrimidin-5-yl)phenyl)-L-proline] | ≥ 5.00 | 4.30 to 5.00 | –
11 | CCOc1cc(C(=O)N2CCC[C@H]2C(=O)O)ccc1-c1nc2[nH]nnc2c(=O)[nH]1 [Compound 158, (3-ethoxy-4-(7-oxo-6,7-dihydro-3H-[1,2,3]triazolo[4,5-d]pyrimidin-5-yl)benzoyl)-L-proline] | < 5.00 | – | 48
12 | CCOc1cc(Cc2ccccc2)ccc1-c1nc2[nH]nnc2c(=O)[nH]1 [Compound 174, 5-(4-benzyl-2-ethoxyphenyl)-3,6-dihydro-7H-[1,2,3]triazolo[4,5-d]pyrimidin-7-one] | ≥ 5.00 | ≥ 5.00 | –
13 | CCOc1cc(-c2ccncc2)ccc1-c1nc2[nH]nnc2c(=O)[nH]1 [Compound 104, 5-(2-Ethoxy-4-(pyridin-4-yl)phenyl)-3,6-dihydro-7H-[1,2,3]triazolo[4,5-d]pyrimidin-7-one] | ≥ 5.00 | ≥ 5.00 | –
14 | CCOc1cc(-c2cccc(OCC(=O)O)c2)ccc1-c1nc2[nH]nnc2c(=O)[nH]1 [Compound 121, 2-((3′-Ethoxy-4′-(7-oxo-6,7-dihydro-3H-[1,2,3]triazolo[4,5-d]pyrimidin-5-yl)-[1,1′-biphenyl]-3-yl)oxy)acetic acid] | ≥ 5.00 | ≥ 5.00 | –
15 | CCOc1cc(Cc2ccc(C(=O)O)cc2)ccc1-c1nc2[nH]nnc2c(=O)[nH]1 [Compound 177, 4-(3-ethoxy-4-(7-oxo-6,7-dihydro-3H-[1,2,3]triazolo[4,5-d]pyrimidin-5-yl)benzyl)benzoic acid] | ≥ 5.00 | ≥ 5.00 | –
16 | CCOc1cc(C(=O)N2CCC[C@@H]2C(=O)O)ccc1-c1nc2[nH]nnc2c(=O)[nH]1 [Compound 159, (3-ethoxy-4-(7-oxo-6,7-dihydro-3H-[1,2,3]triazolo[4,5-d]pyrimidin-5-yl)benzoyl)-D-proline] | < 5.00 | 4.30 to 5.00 | –
17 | CCOc1cc(N2CC[C@H](C(=O)O)C2)ccc1-c1nc2[nH]nnc2c(=O)[nH]1 [Compound 166, (S)-1-(3-ethoxy-4-(7-oxo-6,7-dihydro-3H-[1,2,3]triazolo[4,5-d]pyrimidin-5-yl)phenyl)pyrrolidine-3-carboxylic acid] | ≥ 5.00 | ≥ 5.00 | –
18 | CCOc1cc(C2CC2)ccc1-c1nc2[nH]nnc2c(=O)[nH]1 [Compound 130, 5-(4-cyclopropyl-2-ethoxyphenyl)-3,6-dihydro-7H-[1,2,3]triazolo[4,5-d]pyrimidin-7-one] | ≥ 5.00 | ≥ 5.00 | –
19 | CCOc1cc(NCC(=O)O)ccc1-c1nc2[nH]nnc2c(=O)[nH]1 [Compound 170, (3-ethoxy-4-(7-oxo-6,7-dihydro-3H-[1,2,3]triazolo[4,5-d]pyrimidin-5-yl)phenyl)glycine] | ≥ 5.00 | ≥ 5.00 | –
20 | CCOc1cc(C(=O)Nc2ccccc2)ccc1-c1nc2[nH]nnc2c(=O)[nH]1 [Compound 134, 3-Ethoxy-4-(7-oxo-6,7-dihydro-3H-[1,2,3]triazolo[4,5-d]pyrimidin-5-yl)-N-phenylbenzamide] | ≥ 5.00 | ≥ 5.00 | –
21 | CCOc1cc(-c2ncccn2)ccc1-c1nc2[nH]nnc2c(=O)[nH]1 [Compound 103, 5-(2-Ethoxy-4-(pyrimidin-2-yl)phenyl)-3,6-dihydro-7H-[1,2,3]triazolo[4,5-d]pyrimidin-7-one] | ≥ 5.00 | ≥ 5.00 | –
22 | CCOc1cc(-c2ccccc2C(=O)OC)ccc1-c1nc2[nH]nnc2c(=O)[nH]1 [Compound 106, Methyl 3′-ethoxy-4′-(7-oxo-6,7-dihydro-3H-[1,2,3]triazolo[4,5-d]pyrimidin-5-yl)-[1,1′-biphenyl]-2-carboxylate] | ≥ 5.00 | ≥ 5.00 | –
23 | CCOc1cc(-c2ccc(F)c(C(=O)O)c2)ccc1-c1nc2[nH]nnc2c(=O)[nH]1 [Compound 183, 3′-ethoxy-4-fluoro-4′-(7-oxo-6,7-dihydro-3H-[1,2,3]triazolo[4,5-d]pyrimidin-5-yl)-[1,1′-biphenyl]-3-carboxylic acid] | ≥ 5.00 | ≥ 5.00 | –
